Results taken from patent publication US11608328B2, “Chemical probes to identify anti-mycobacterial MmpL3 inhibitors” (Creighton University, priority 2019, dated 2023).
≈ marks a conversion by molar mass, not a printed value. Where “and” joins values, the source holds several entries; their conditions need not be identical. Equal values may be shown once. Entries after “also recorded” stand apart in the source; their conditions may differ. Read-outs that look alike come from different tables or passages of the source. Marks after values point to notes of the source that are not given here.

Tests used:
[1] = tested on: MsmgΔmmpL3 expressing wild-type mmpL3tb; experiment: microbe, parasite or virus in culture; assay type: cell-based; conditions: MmpL3 WT
[2] = tested on: MsmgΔmmpL3 expressing mmpL3tb G253E; assay type: cell-based, Mycobacterium smegmatis
[3] = tested on: MsmgΔmmpL3 expressing mmpL3tb S288T; assay type: cell-based, Mycobacterium smegmatis
[4] = tested on: MsmgΔmmpL3 expressing mmpL3tb S309C; assay type: cell-based, Mycobacterium smegmatis
[5] = tested on: MsmgΔmmpL3 expressing mmpL3tb T311I; assay type: cell-based, Mycobacterium smegmatis
[6] = tested on: MsmgΔmmpL3 expressing mmpL3tb Q372R; assay type: cell-based, Mycobacterium smegmatis
[7] = tested on: MsmgΔmmpL3 expressing mmpL3tb L567P; assay type: cell-based, Mycobacterium smegmatis
[8] = tested on: MsmgΔmmpL3 expressing mmpL3tb F644C; assay type: cell-based, Mycobacterium smegmatis
[9] = tested on: MsmgΔmmpL3 expressing mmpL3tb V684G; assay type: cell-based, Mycobacterium smegmatis
[10] = tested on: MsmgΔmmpL3 expressing mmpL3tb LI89A; experiment: microbe, parasite or virus in culture; assay type: cell-based; conditions: Table 2, mutant LI89A
[11] = tested on: MsmgΔmmpL3 expressing mmpL3tb G253R; assay type: cell-based, Mycobacterium smegmatis
[12] = tested on: MsmgΔmmpL3 expressing mmpL3tb G253W; assay type: cell-based, Mycobacterium smegmatis
[13] = tested on: MsmgΔmmpL3 expressing mmpL3tb S591W; assay type: cell-based, Mycobacterium smegmatis
[14] = tested on: MsmgΔmmpL3 expressing mmpL3tb S591G; assay type: cell-based, Mycobacterium smegmatis
[15] = tested on: MsmgΔmmpL3 expressing mmpL3tb F644C/I/L; assay type: cell-based, Mycobacterium smegmatis
[16] = tested on: MsmgΔmmpL3 expressing mmpL3tb F644Y; assay type: cell-based, Mycobacterium smegmatis
[17] = tested on: MsmgΔmmpL3 expressing mmpL3tb V684I; assay type: cell-based, Mycobacterium smegmatis
[18] = tested on: MsmgΔmmpL3 expressing mmpL3tb V684W; assay type: cell-based, Mycobacterium smegmatis
Mtb [19] = experiment: MIC values against Mtb used for the PMF assays; assay type: cell-based, Mycobacterium tuberculosis; conditions: against Mtb, FIG. 8 legend, read-out: MIC values
purified MmpL3tb protein = purified MmpL3tb protein (Mycobacterium tuberculosis, UniProt P9WJV5); experiment: Surface Plasmon Resonance binding to immobilized MmpL3tb; conditions: for ka2 / kd1 / kd2 / ka1: SPR global fit; for ka1: HEPES-TX buffer with 5% DMSO; for Model (best-fit kinetic model): SPR sensorgrams fit globally; for SPR binding signal: in words; for Kd: equilibrium dissociation constant calculated from the rate constants, read-out: KD1
purified MmpL3tb protein, sequence (P9WJV5 whole entry): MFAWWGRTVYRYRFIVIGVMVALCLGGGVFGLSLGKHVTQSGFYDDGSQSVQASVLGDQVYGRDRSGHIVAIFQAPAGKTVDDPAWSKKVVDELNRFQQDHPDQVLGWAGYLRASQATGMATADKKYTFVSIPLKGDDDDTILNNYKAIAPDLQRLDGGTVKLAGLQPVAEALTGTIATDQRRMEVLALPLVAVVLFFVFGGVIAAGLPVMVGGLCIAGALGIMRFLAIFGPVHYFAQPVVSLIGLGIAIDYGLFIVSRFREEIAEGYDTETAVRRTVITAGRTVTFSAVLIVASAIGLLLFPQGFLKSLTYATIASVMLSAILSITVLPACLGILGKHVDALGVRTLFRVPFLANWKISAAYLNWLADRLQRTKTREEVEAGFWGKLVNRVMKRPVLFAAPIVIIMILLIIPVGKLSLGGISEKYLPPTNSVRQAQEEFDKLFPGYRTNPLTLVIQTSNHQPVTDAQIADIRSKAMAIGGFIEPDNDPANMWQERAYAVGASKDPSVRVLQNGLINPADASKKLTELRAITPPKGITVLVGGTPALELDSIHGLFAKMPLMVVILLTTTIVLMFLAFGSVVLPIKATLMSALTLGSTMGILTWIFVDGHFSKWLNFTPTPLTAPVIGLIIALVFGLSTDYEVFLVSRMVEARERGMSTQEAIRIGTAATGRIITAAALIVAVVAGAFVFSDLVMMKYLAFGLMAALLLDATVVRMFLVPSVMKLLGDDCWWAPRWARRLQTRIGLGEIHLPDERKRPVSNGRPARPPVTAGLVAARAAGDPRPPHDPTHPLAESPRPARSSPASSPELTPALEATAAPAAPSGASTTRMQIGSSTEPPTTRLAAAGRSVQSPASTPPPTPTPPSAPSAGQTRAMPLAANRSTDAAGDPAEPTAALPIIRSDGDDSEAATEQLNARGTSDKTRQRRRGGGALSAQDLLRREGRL

MmpL3tb (MmpL3^WT) = MmpL3tb (MmpL3^WT) (Mycobacterium tuberculosis, UniProt P9WJV5); assay type: binding; conditions: 50, 100 and 200 μM
MmpL3tb (MmpL3^WT), sequence (P9WJV5 whole entry): as above

purified MmpL3-GFP = purified MmpL3-GFP (Mycobacterium tuberculosis, UniProt P9WJV5); assay type: binding; conditions: 2 μM Compound 2 with increasing inhibitor concentrations
purified MmpL3-GFP, sequence (P9WJV5 whole entry): as above

[20] = tested on: transfer of mycolic acids onto their cell envelope acceptors in MsmgΔmmpL3/pMVGH1-mmpL3tb; assay type: cell-based; conditions: 3 hours
[21] = tested on: transmembrane potential (ΔΨ) of intact Mtb H37Rv mc^26206 cells; experiment: Membrane potential measurement with DiOC2(3) in intact cells; assay type: cell-based, Mycobacterium tuberculosis
[22] = tested on: transmembrane electrochemical proton gradient (ΔpH) of intact Mtb H37Rv mc^26206 cells; experiment: Electrochemical proton gradient measurement with CMFDA in intact cells; assay type: cell-based, Mycobacterium tuberculosis
[23] = tested on: Mtb H37Rv mc^26206 inverted membrane vesicles (IMVs); experiment: Succinate-driven proton translocation assay (ACMA) in inverted membrane vesicles; assay type: biochemical, Mycobacterium tuberculosis; conditions: one and four times MIC against Mtb
Description: (§1) FIG. 19A: The reactions were initiated by adding 5 mM succinate. Upon stabilization of the signal, control compounds (INH, RIF, nigericin), the MmpL3 inhibitors or diluent (water, used for INH, or 0.2% DMSO, used for all other compounds) were added and proton translocation monitored fluorimetrically. MmpL3 inhibitors and controls were used at one and four times their MIC concentrations against Mtb. Shown are the averages and standard deviations (error bars) of triplicate measurements.
(§2) Succinate-driven proton translocation assays with the fluorescent substrate ACMA were conducted as previously described (see e.g., Li et al. J. Med. Chem. 2014, 57: 3126-3139) to determine the effect of MmpL3 inhibitors on the electrochemical proton gradient of Mtb H37Rv mc^26206 and E. coli BL21(DE3) IMVs. IMVs (0.18 mg/mL membrane proteins) were pre-incubated at 37° C. in 10 mM HEPES-KOH pH 7.5, 100 mM KCl, 5 mM MgCl2 containing 2 μM ACMA and the baseline monitored for 10 min with a fluorescence spectrophotometer (Victor X5, PerkinElmer). The reaction was then initiated by adding 5 mM succinate. Upon stabilization of the signal, control compounds (INH, RIF, nigericin), MmpL3 inhibitors, or diluent (0.2% DMSO or water) were added and proton translocation monitored fluorimetrically. The excitation and emission wavelengths were 410 nm and 480 nm, respectively.

E. coli BL21(DE3) IMVs = experiment: as above; assay type: biochemical; conditions: 2 μg/mL
Description: as §1, §2

[24] = molecular target: MmpL3tb in MsmgΔmmpL3/pMVGH1-mmpL3tb cells (Mycobacterium tuberculosis, UniProt P9WJV5); assay type: cell-based
MmpL3tb in MsmgΔmmpL3/pMVGH1-mmpL3tb cells, sequence (P9WJV5 whole entry, looked up, stated change not applied): as the sequence (P9WJV5 whole entry) above

Mtb [25] = conditions: reported by Brown et al., Bioorg. Med. Chem. 2011; cited from earlier work
[26] = tested on: MsmgΔmmpL3 expressing mmpL3tb L189R; assay type: cell-based, Mycobacterium smegmatis
[27] = tested on: MsmgΔmmpL3 expressing mmpL3tb S591I; assay type: cell-based, Mycobacterium smegmatis
[28] = tested on: MsmgΔmmpL3 expressing mmpL3tb V684A; assay type: cell-based, Mycobacterium smegmatis
[29] = BLI assay buffer
[30] = molecular target: T1, MmpL3tb- and MmpL3tb-GFP-coated particles (Mycobacterium tuberculosis, UniProt P9WJV5); assay type: binding; conditions: 15 min at room temperature; various probe concentrations
T1 construct: His tag; made in house; host or cells: Mycobacterium smegmatis ΔmmpL3 carrying pMVGH1-mmpL3tb or pMVGH1-mmpL3tb-gfp
T1 sequence (P9WJV5 whole entry): as above

[31] = tested on: MmpL3tb-GFP in MsmgΔmmpL3/pMVGH1-mmpL3tb-GFP cells; assay type: cell-based; conditions: 2 μM probe, 4 h at 37° C.
[32] = Mycolicibacterium smegmatis, Tables 1A-1B, read-out: MIC

Row | Structure (SMILES) | MIC [1, 32] [µg/mL] | MIC [2] | MIC [3] | MIC [4] | MIC [5] | MIC [6] | MIC [7] | MIC [8] | MIC [9] | MIC [11] | MIC [12] | MIC [13] | MIC [14] | MIC [15] | ka2 (purified MmpL3tb protein) | kd1 (purified MmpL3tb protein) [s⁻¹] | kd2 (purified MmpL3tb protein) [s⁻¹] | ka1 (purified MmpL3tb protein) [M⁻¹ s⁻¹] | Model (best-fit kinetic model) (purified MmpL3tb protein) | displacement of Compound 2 from purified MmpL3tb (purified MmpL3-GFP) | other results
1 | CC(C)=CCC/C(C)=C/CNCCNC1C2CC3CC(C2)CC1C3 (stereo not shown) [SQ109] | 0.39 (≈ 1.18 µM) | 1.25^b μg/mL and 1.25 μg/mL | 3.13^a μg/mL | 6.25^a μg/mL | 0.78 µg/mL (≈ 2.36 µM) | 0.78 µg/mL (≈ 2.36 µM) | 1.56^b μg/mL | 1.56^b μg/mL | 0.39 μg/mL and 0.31-0.62^ μg/mL | 0.31-0.62^c μg/mL | 0.15-0.3^d μg/mL | 0.31^c μg/mL | 0.31^c μg/mL | 0.62-1.25^ μg/mL | 0.025 1/RU*s | 2.32 | 0.0436 | 1208.2 | Two-state reaction | not significant | MIC ([1]; Mycolicibacterium smegmatis, Table 2, read-out: MIC): 0.31 µg/mL (≈ 0.938 µM); MIC ([10]; Mycolicibacterium smegmatis, read-out: MIC): 0.31 to 0.62 µg/mL (≈ 0.938 to 1.88 µM); MIC [16]: 0.15-0.31^c μg/mL; MIC [17]: 0.31-0.62^ μg/mL; MIC [18]: 0.07-0.15^d μg/mL; MIC (Mtb [19]; Mycobacterium tuberculosis): 2.36 µM (≈ 0.78 µg/mL); SPR binding signal (purified MmpL3tb protein): strong SPR signals; BLI binding signal (MmpL3tb (MmpL3^WT)): consistently bound to MmpL3tb with the strongest signals; inhibition of transfer of mycolic acids to cell envelope acceptors [20]: actually targeted MmpL3tb in the Msmg recombinant system; effect on membrane potential (ΔΨ) [21]: dissipated ΔΨ in a concentration-dependent manner; effect on electrochemical proton gradient (ΔpH) [22]: collapsed ΔpH; effect on ΔpH of Mtb IMVs [23]: increase of fluorescence intensity indicative of ΔpH collapse; effect on ΔpH of E. coli IMVs (E. coli BL21(DE3) IMVs): collapse the ΔpH of E. coli IMVs; also recorded: similarly dissipated the pH gradient of IMVs prepared from E. coli
2 | NNC(=O)c1ccncc1 [INH, isoniazid] |  |  |  |  |  |  |  |  |  |  |  |  |  |  |  |  |  |  |  | No significant displacement | MIC (Mtb [19]; Mycobacterium tuberculosis): 0.58 µM (≈ 0.0795 µg/mL); displacement of probe (Compound 1 or Compound 2) in intact cells [24]: not observed
3 | COC(=O)c1ccc(NC(=O)NC23CC4CC(CC(C4)C2)C3)cc1O [AU, methyl 1-(1-adamantyl)-3-(4-aminosalicylate)urea] |  |  |  |  |  |  |  |  |  |  |  |  |  |  |  |  |  |  |  |  | Mtb MIC value (Mtb [25]): 0.4 µg/mL
4 | Cc1c(CN2CCN(C)CC2)cc(-c2ccc(Cl)cc2)n1-c1ccc(Cl)cc1 [BM212] |  | 12.5 µg/mL and 8 µg/mL | 25.0^b μg/mL | 12.5 µg/mL (≈ 30.2 µM) | 12.5 µg/mL (≈ 30.2 µM) | 12.5 µg/mL (≈ 30.2 µM) | 12.5 µg/mL (≈ 30.2 µM) | 3.13 µg/mL (≈ 7.55 µM) |  | 8 µg/mL (≈ 19.3 µM) | 8 µg/mL (≈ 19.3 µM) | 4^c μg/mL | 1^c μg/mL | 4 µg/mL (≈ 9.65 µM) | 0.005 1/RU*s | 1.67 | 0.0222 | 1054.8 | Two-state reaction | clear concentration-dependent displacement | MIC ([1]; Table 2): 4 µg/mL (≈ 9.65 µM); MIC ([1]; Tables 1A-1B): 6.25 µg/mL (≈ 15.1 µM); MIC [26]: 12.5 µg/mL and 8 µg/mL; MIC [27]: 25.0^b μg/mL and 16 μg/mL; MIC [28]: 6.25 µg/mL and 4 µg/mL; MIC [10]: 8 µg/mL (≈ 19.3 µM); MIC [16]: 8 µg/mL (≈ 19.3 µM); MIC [17]: 2 µg/mL (≈ 4.83 µM); MIC [18]: 4 µg/mL (≈ 9.65 µM); MIC (Mtb [19]): 3.76 µM (≈ 1.56 µg/mL); Kd (purified MmpL3tb protein): 1290 µM; BLI binding signal (MmpL3tb (MmpL3^WT)): only yielded weak binding signals; inhibition of transfer of mycolic acids to cell envelope acceptors [20]: actually targeted MmpL3tb in the Msmg recombinant system; effect on membrane potential (ΔΨ) [21]: only showed an effect on ΔΨ at the highest concentration tested (8×MIC); effect on electrochemical proton gradient (ΔpH) [22]: collapsed ΔpH; effect on ΔpH of Mtb IMVs [23]: increase of fluorescence intensity indicative of ΔpH collapse; effect on ΔpH of E. coli IMVs (E. coli BL21(DE3) IMVs): showed no such activity; solubility limit in 5% DMSO [29]: 50 µM (≈ 20.7 µg/mL)
5 | CN(C)c1ccc2c(-c3ccc(C(=O)NCCCCCCn4cc(COc5ccc6[nH]c(C(=O)NC7CCCCCCC7)cc6c5)nn4)cc3C(=O)O)c3ccc(=[N+](C)C)cc-3oc2c1 [Compound 1] | 8 | >32^b μg/mL | >32^b μg/mL | >32^b μg/mL | >32^b μg/mL | >32^b μg/mL | 32^b μg/mL | 16 µg/mL | >32^b μg/mL |  |  |  |  |  | 0.039 1/RU*s | 0.19 | 0.0273 | 2138.3 | Two-state reaction |  | MIC [26]: >32^b μg/mL; MIC [27]: >32^b μg/mL; MIC [28]: >32^b μg/mL; Kd (purified MmpL3tb protein): 36.1 µM; SPR binding signal (purified MmpL3tb protein): strong SPR signals; probe binding to coated particles (MFI) [30]: concentration-dependent binding; colocalization with MmpL3tb-GFP [31]: colocalization of the probes with MmpL3tb-GFP
